# In PMC12751057, “The energy landscape of N-ribosidic bond cleavage catalysed by 2′-deoxynucleoside 5′-phosphate N-hydrolase 1” (Biochemical Journal, 2025):
# Changes are numbered by the printed parent chain.
# Assays:
# [1] = molecular target: T1, 2′-deoxynucleoside 5′-phosphate N-hydrolase 1 (HsDNPH1) (Homo sapiens, UniProt O43598); experiment: steady-state UV inhibition assay, competitive fit; type: biochemical
# T1 construct: gene DNPH1
# T1 sequence (O43598 2-174): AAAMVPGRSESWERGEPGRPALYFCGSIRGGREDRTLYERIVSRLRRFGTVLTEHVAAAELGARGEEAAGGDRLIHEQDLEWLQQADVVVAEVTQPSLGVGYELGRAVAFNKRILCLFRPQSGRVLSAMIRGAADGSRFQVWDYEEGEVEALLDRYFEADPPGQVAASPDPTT
# [2] = molecular target: T2, 2′-deoxynucleoside 5′-phosphate N-hydrolase 1 (HsDNPH1) (Homo sapiens, UniProt O43598, E104Q); experiment: ITC; also stopped-flow UV binding kinetics (KD app […]) and differential UV spectroscopy
# T2 construct: gene DNPH1
# T2 sequence (O43598 2-174 E104Q): T1 sequence (O43598 2-174) with E103Q
# [3] = molecular target: T1, 2′-deoxynucleoside 5′-phosphate N-hydrolase 1 (HsDNPH1); experiment: single-turnover stopped-flow UV kinetics, k2/k1 ratio from global fit; steady-state hydrolysis; type: biochemical
# [4] = molecular target: T3, 2′-deoxynucleoside 5′-phosphate N-hydrolase 1 (HsDNPH1) (Homo sapiens, UniProt O43598, E55Q); experiment: stopped-flow burst and single-turnover kinetics of the purified variant (turnover, k burst); type: biochemical
# T3 construct: gene DNPH1
# T3 sequence (O43598 2-174 E55Q): T1 sequence (O43598 2-174) with E54Q
Ki [1] [µM],Kd [2] [µM],Kd [3] [µM],rate constant [4] [s⁻¹],SMILES
6900 ± 800,–,–,–,O=P(O)(O)OC[C@H]1OC(O)[C@H](O)[C@@H]1O (stereo partly shown) [ribose 5-phosphate]
–,1.6 ± 0.4,2.36,0.270 ± 0.001,"O=c1[nH]c(=O)n([C@H]2C[C@H](O)[C@@H](COP(=O)(O)O)O2)cc1CO [5hmdUMP, 5-hydroxymethyl-2′-deoxyuridine 5′-monophosphate]"
